Values quoted from earlier work, collected in patent US6127342A, “Method for preventing or treating a lung disease caused by active oxygen and free radical injury” (Teijin Limited, priority 1991, dated 2000).

Test system: glutathione peroxidase
Conditions: Flohe, et al.; cited from earlier work

In the case of `COC(=O)[C@H](CS)NC(=O)CC[C@H](N)C(=O)O`, the “efficiency as substrate of glutathione peroxidase compared with glutathione” value is listed as 20-30%.
